Source: publication PMC9356275, “A quantitative high-throughput screen identifies compounds that lower expression of the SCA2-and ALS-associated gene ATXN2” (The Journal of Biological Chemistry, 2022)
Where a name gives a salt, the structure may show the parent alone. Read-outs that look alike come from different tables or passages of the source.

Columns and labels:
Assay type in all cases: cell-based, human
[1] = system: ATXN2-luc; assay: MSSR pilot screen: ATXN2-luc luciferase assay (Bright-Glo) in H2 cells, single 10 μM dose; details: for SD from mean (ATXN2-luc, Z-score): H2 cells, single dose (title: 10 μM compound), overnight; for ¦Score/1SD¦: absolute score divided by 1SD (0.891 or 0.9)
[2] = system: H2 and S1 cells; assay: Paired MTT viability assay, average of H2 and S1 cells (1 and 10 uM); parameters: H2&S1 ave MTT 1uM / H2&S1 ave MTT 10uM: unit not given here; details: for viability at 1 µM / viability at 10 µM: Homo sapiens
Excerpt: (§1) Supplement mmc2.xlsx, sheet "43 annotated compounds"

[3] = system: ATXN2-luc; assay: MSSR hit retest: ATXN2-luc luciferase assay, average of H2 and S1 cells (1 and 10 uM); parameters: H2&S1 ave luc 1uM / H2&S1 ave luc 10uM: scale not given here; details: for H2&S1 ave luc 10uM / activity at 10 µM: head line r3 10uM; for H2&S1 ave luc 10uM: head line r4 20 uM compound; for activity at 1 µM: read-out: H2&S1 ave luc 1uM
Excerpt: as §1

[4] = system: ATXN2-luc; assay: MSSR hit retest / multiconcentration testing: ATXN2-luc luciferase assay in H2 cells (1 and 10 μM); details: for H2&S1 ave luc 1uM: 1 uM compound; for H2&S1 ave luc 10uM: 10 uM compound
[5] = pilot screen at 10 µM compound, H2 cells expressing ATXN2-luc
[6] = 1 uM compound, average of H2 and S1 cells
[7] = luciferase, average of H2 and S1 cells expressing ATXN2-luc, rescreen
[8] = pilot screen, H2 cells expressing ATXN2-luc, single dose printed as 10 μM compound
[9] = 1 uM compound, read-out: H2&S1 ave MTT 1uM
[10] = 10 uM compound, read-out: H2&S1 ave MTT 10uM
[11] = Homo sapiens, 1 uM compound, average of H2 and S1 cells
[12] = Homo sapiens, average of H2 and S1 cells, read-out: H2&S1 ave luc 10uM
[13] = luciferase assay, average of H2 and S1 cells (both ATXN2-luc), rescreen from plated libraries

Compound: CC(C)c1cc(/C=C(\C#N)C(=O)NCCCc2ccccc2)cc(C(C)C)c1O [SU1498]
- SD from mean (ATXN2-luc, Z-score) [1]: -4.885 SD
- SD from mean (pilot screen) ([1]; pilot screen): -4.885 SD
- SD from mean (pilot screen) [1, 5]: -4.885
- ¦Score/1SD¦ ([1]; pilot screen): 5.48
- H2&S1 ave MTT 1uM ([2]; 1 uM compound): 86.0811
- H2&S1 ave MTT 10uM ([2]; 10 uM compound): 61.708
- H2&S1 ave luc 1uM [3, 6]: 22
- H2&S1 ave luc 10uM ([3]; average of H2 and S1 cells): 15
- H2&S1 ave luc 1uM [4, 7]: 22
- H2&S1 ave luc 10uM [4, 7]: 15

Compound: [H]/N=C(/NCCCCC)N/N=C/c1c[nH]c2ccc(OC)cc12 [TEGASEROD MALEATE]
- SD from mean (ATXN2-luc, Z-score) [1]: -3.606 SD
- SD from mean (pilot screen) ([1]; pilot screen): -3.606 SD
- SD from mean (pilot screen) [1, 8]: -3.606
- ¦Score/1SD¦ ([1]; pilot screen): 4.01
- viability at 1 µM [2, 9]: 106%
- viability at 10 µM [2, 10]: 14.2%
- activity at 1 µM [3, 11]: 105%
- activity at 10 µM [3, 12]: 8%
- H2&S1 ave luc 1uM [4, 13]: 105

Compound: CCN(CC)CCCCCCCCOC(=O)c1cc(OC)c(OC)c(OC)c1 [TMB-8]
- SD from mean (ATXN2-luc, Z-score) [1]: -5.740 SD
- SD from mean (pilot screen) ([1]; pilot screen): -5.740 SD
- SD from mean (pilot screen) [1, 5]: -5.740
- ¦Score/1SD¦ ([1]; pilot screen): 6.44
- H2&S1 ave MTT 1uM ([2]; 1 uM compound): 73.9218
- H2&S1 ave MTT 10uM ([2]; 10 uM compound): 52.1193
- H2&S1 ave luc 1uM [3, 6]: 66
- H2&S1 ave luc 10uM ([3]; average of H2 and S1 cells): 53
- H2&S1 ave luc 1uM [4, 7]: 66
- H2&S1 ave luc 10uM [4, 7]: 53

Compound: COc1cccc(C2(O)CCCCC2CN(C)C)c1 (centres unmarked) [Tramadol]
- SD from mean (ATXN2-luc, Z-score) [1]: -3.415 SD
- SD from mean (pilot screen) ([1]; pilot screen): -3.415 SD
- SD from mean (pilot screen) [1, 8]: -3.415
- ¦Score/1SD¦ ([1]; pilot screen): 3.79
- viability at 1 µM ([2]; read-out: H2&S1 ave MTT 1uM, 1 uM compound): 128%
- viability at 10 µM ([2]; read-out: H2&S1 ave MTT 10uM, 10 uM compound): 113%
- activity at 1 µM ([3]; Homo sapiens): 107%
- activity ([3]; Homo sapiens, read-out: H2&S1 ave luc 10uM): 134%
- H2&S1 ave luc 1uM [4, 13]: 107
- H2&S1 ave luc 10uM [4, 13]: 134

Compound: O=c1[nH]c(=O)n([C@H]2C[C@H](O)[C@@H](CO)O2)cc1C(F)(F)F [Trifluridine]
- SD from mean (ATXN2-luc, Z-score) [1]: -5.158 SD
- SD from mean (pilot screen) ([1]; pilot screen): -5.158 SD
- SD from mean (pilot screen) [1, 5]: -5.158
- ¦Score/1SD¦ ([1]; pilot screen): 5.79
- viability at 1 µM [2, 9]: 80.3%
- viability at 10 µM [2, 10]: 53%
- activity at 1 µM [3, 11]: 102%
- activity at 10 µM [3, 12]: 71%
- H2&S1 ave luc 1uM [4, 7]: 102

Compound: C1CCC(N=C(NC23CC4CC(CC(C4)C2)C3)N2CCOCC2)CC1.Cl [U-37883A]
- SD from mean (ATXN2-luc, Z-score) [1]: -4.965 SD
- SD from mean (pilot screen) ([1]; pilot screen): -4.965 SD
- SD from mean (pilot screen) [1, 5]: -4.965
- ¦Score/1SD¦ ([1]; pilot screen): 5.57
- H2&S1 ave MTT 1uM ([2]; 1 uM compound): 105.463
- H2&S1 ave MTT 10uM ([2]; 10 uM compound): 56.7572
- H2&S1 ave luc 1uM [3, 6]: 94
- H2&S1 ave luc 10uM ([3]; average of H2 and S1 cells): 17
- H2&S1 ave luc 1uM [4, 7]: 94
- H2&S1 ave luc 10uM [4, 7]: 17

Compound: Cyanocobalamin
- SD from mean (ATXN2-luc, Z-score) [1]: -2.681 SD
- SD from mean (pilot screen) ([1]; pilot screen): -2.681 SD
- SD from mean (pilot screen) [1, 8]: -2.681
- ¦Score/1SD¦ ([1]; pilot screen): 3.01
- H2&S1 ave MTT 1uM ([2]; 1 uM compound): 151.543
- H2&S1 ave MTT 10uM ([2]; 10 uM compound): 134.855
- H2&S1 ave luc 1uM [3, 6]: 110
- H2&S1 ave luc 10uM ([3]; average of H2 and S1 cells): 140
- H2&S1 ave luc 1uM [4, 13]: 110
- H2&S1 ave luc 10uM [4, 13]: 140

Compound: STROPH[…] LACTONE ACETATE
- SD from mean (ATXN2-luc, Z-score) [1]: -3.855 SD
- SD from mean (pilot screen) ([1]; pilot screen): -3.855 SD
- SD from mean (pilot screen) [1, 5]: -3.855
- ¦Score/1SD¦ ([1]; pilot screen): 4.28
- H2&S1 ave MTT 1uM ([2]; 1 uM compound): 43.5914
- H2&S1 ave MTT 10uM ([2]; 10 uM compound): 36.6277
- H2&S1 ave luc 1uM [3, 6]: 37
- H2&S1 ave luc 1uM [4, 7]: 37
- H2&S1 ave luc 10uM [4, 7]: 20
